Results published in article PMC2642729, “Interpain A, a Cysteine Proteinase from Prevotella intermedia, Inhibits Complement by Degrading Complement Factor C3” (PLoS Pathogens, 2009).

Molecular target: T1, interpain A (InpA) (Prevotella intermedia, UniProt A9J7N5)
T1 construct: gene pin0048; full precursor 868 residues with 44-residue signal peptide; mature form 28 kDa (Val112-Pro359)
Experiment: active-site titration; residual activity by AMC release from Boc-Val-Leu-Lys-AMC
Format: biochemical
Settings: titrated to total inactivation; pH 7.5, 5 mM EDTA, 2 mM DTT; 37 min preincubation at room temperature; covalent active-site cysteine inhibitor (mode known, not given)

T1 sequence (A9J7N5 entry or part of it): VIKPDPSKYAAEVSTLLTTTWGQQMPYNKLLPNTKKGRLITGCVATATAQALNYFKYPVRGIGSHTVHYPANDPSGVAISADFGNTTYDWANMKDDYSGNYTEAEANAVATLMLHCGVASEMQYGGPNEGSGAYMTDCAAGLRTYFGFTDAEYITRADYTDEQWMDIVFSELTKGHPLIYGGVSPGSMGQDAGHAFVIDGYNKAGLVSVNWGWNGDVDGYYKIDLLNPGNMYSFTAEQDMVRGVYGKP

SMILES: CC(C)C[C@H](NC(=O)[C@H]1O[C@@H]1C(=O)O)C(=O)NCCCCNC(=N)N [E64]
- active-site titration; residual activity by AMC release from Boc-Val-Leu-Lys-AMC: determined by active site titration using inhibitor E64 (Sigma)
